Results reported in ChEMBL document CHEMBL1201862, “PubChem BioAssay data set” (2004).
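48-hour exposure; five concentrations; linearly interpolated endpoints. GI50 marks 50% less growth.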 The source made the active and inactive calls. Rule as the data show it: active = GI50 up to about 1.1 µM and inactive = higher.

What was measured:
Test in all cases: DTP human tumour cell line panel, 48 h
SF-268 = system: SF-268
UACC-62 = system: UACC-62
IGROV-1 = system: IGROV-1
MOLT-4 = system: MOLT-4
HL-60 = system: HL-60
HCT-15 = system: HCT-15
EKVX = system: EKVX
ACHN = system: ACHN
COLO 205 = system: COLO 205
HCT-116 = system: HCT-116
MDA-MB-231 = system: MDA-MB-231
NCI-H226 = system: NCI-H226
HT-29 = system: HT-29
SF-539 = system: SF-539
MDA-N = system: MDA-N
OVCAR-4 = system: OVCAR-4
BT-549 = system: BT-549
DU-145 = system: DU-145
RXF 393 = system: RXF 393
KM12 = system: KM12
OVCAR-3 = system: OVCAR-3
LOX IMVI = system: LOX IMVI
SNB-19 = system: SNB-19
OVCAR-8 = system: OVCAR-8
SN12C = system: SN12C
MCF7 = system: MCF7
NCI/ADR-RES = system: NCI/ADR-RES
NCI-H460 = system: NCI-H460
Hs-578T = system: Hs-578T
RPMI-8226 = system: RPMI-8226
SK-OV-3 = system: SK-OV-3
A498 = system: A498
786-0 = system: 786-0
TK-10 = system: TK-10
MDA-MB-435 = system: MDA-MB-435
SK-MEL-5 = system: SK-MEL-5
SW-620 = system: SW-620
SNB-75 = system: SNB-75
PC-3 = system: PC-3
UACC-257 = system: UACC-257
K562 = system: K562
HOP-92 = system: HOP-92
A549 = system: A549
M14 = system: M14
UO-31 = system: UO-31
CAKI-1 = system: CAKI-1
HOP-62 = system: HOP-62
OVCAR-5 = system: OVCAR-5
SF-295 = system: SF-295
HCC 2998 = system: HCC 2998
SK-MEL-2 = system: SK-MEL-2
Malme-3M = system: Malme-3M
SK-MEL-28 = system: SK-MEL-28
CCRF-CEM = system: CCRF-CEM
U-251 = system: U-251
T47D = system: T47D
SR = system: SR
NCI-H23 = system: NCI-H23

Structure (SMILES): O=[N+]([O-])c1cc(Cl)ccc1S(=O)(=O)N1CCCc2cc(Cl)ccc21
- GI50 (SF-268): > 100 µM (inactive)
- GI50 (UACC-62): 19.7 µM (inactive)
- GI50 (IGROV-1): 30.8 µM (inactive)
- GI50 (MOLT-4): 6.11 µM (inactive)
- GI50 (HL-60): > 10 µM (inactive)
- GI50 (HCT-15): 33.7 µM
- GI50 (EKVX): > 100 µM (inactive)
- GI50 (ACHN): > 100 µM (inactive)
- GI50 (COLO 205): 51.8 µM (inactive)
- GI50 (HCT-116): 28.6 µM (inactive)
- GI50 (MDA-MB-231): > 100 µM (inactive)
- GI50 (NCI-H226): 82.4 µM (inactive)
- GI50 (HT-29): 21 µM (inactive)
- GI50 (SF-539): 93.1 µM (inactive)
- GI50 (MDA-N): 22.5 µM (inactive)
- GI50 (OVCAR-4): 88.9 µM (inactive)
- GI50 (BT-549): 31.9 µM (inactive)
- GI50 (DU-145): 61.5 µM (inactive)
- GI50 (RXF 393): 51.2 µM (inactive)
- GI50 (KM12): 51.9 µM (inactive)
- GI50 (OVCAR-3): > 100 µM (inactive)
- GI50 (LOX IMVI): 34.8 µM (inactive)
- GI50 (SNB-19): > 100 µM (inactive)
- GI50 (OVCAR-8): > 100 µM (inactive)
- GI50 (SN12C): > 100 µM (inactive)
- GI50 (MCF7): 45.8 µM (inactive)
- GI50 (NCI/ADR-RES): 25.5 µM (inactive)
- GI50 (NCI-H460): 30.5 µM (inactive)
- GI50 (Hs-578T): > 100 µM (inactive)
- GI50 (RPMI-8226): 20.6 µM (inactive)
- GI50 (SK-OV-3): 59.6 µM (inactive)
- GI50 (A498): 45.6 µM (inactive)
- GI50 (786-0): > 100 µM (inactive)
- GI50 (TK-10): > 100 µM (inactive)
- GI50 (MDA-MB-435): 17.8 µM (inactive)
- GI50 (SK-MEL-5): 30.8 µM (inactive)
- GI50 (SW-620): > 100 µM (inactive)
- GI50 (SNB-75): 18.7 µM (inactive)
- GI50 (PC-3): 55 µM (inactive)
- GI50 (UACC-257): 7.08 µM (inactive)
- GI50 (K562): 9.48 µM (inactive)
- GI50 (HOP-92): 30.8 µM (inactive)
- GI50 (A549): 43.1 µM (inactive)
- GI50 (M14): > 100 µM (inactive)
- GI50 (UO-31): 46.2 µM (inactive)
- GI50 (CAKI-1): 45.2 µM (inactive)
- GI50 (HOP-62): > 100 µM (inactive)
- GI50 (OVCAR-5): > 100 µM (inactive)
- GI50 (SF-295): 45.7 µM (inactive)
- GI50 (HCC 2998): > 100 µM (inactive)
- GI50 (SK-MEL-2): > 100 µM (inactive)
- GI50 (Malme-3M): 51.5 µM (inactive)
- GI50 (SK-MEL-28): > 100 µM (inactive)
- GI50 (CCRF-CEM): 6.17 µM (inactive)

Structure (SMILES): CC1=C2C(=O)c3ccccc3C2=C(C)S(=O)(=O)O1
- GI50 (SF-268): > 10 µM (inactive)
- GI50 (UACC-62): > 10 µM (inactive)
- GI50 (IGROV-1): > 10 µM (inactive)
- GI50 (MOLT-4): > 10 µM (inactive)
- GI50 (HL-60): > 10 µM (inactive)
- GI50 (ACHN): > 10 µM (inactive)
- GI50 (COLO 205): > 10 µM (inactive)
- GI50 (U-251): > 10 µM (inactive)
- GI50 (OVCAR-4): > 10 µM (inactive)
- GI50 (T47D): > 10 µM (inactive)
- GI50 (RXF 393): > 10 µM (inactive)
- GI50 (MCF7): > 10 µM (inactive)
- GI50 (NCI/ADR-RES): > 10 µM (inactive)
- GI50 (NCI-H460): > 10 µM (inactive)
- GI50 (SR): > 10 µM (inactive)
- GI50 (RPMI-8226): > 10 µM (inactive)
- GI50 (SK-OV-3): > 10 µM (inactive)
- GI50 (786-0): > 10 µM (inactive)
- GI50 (MDA-MB-435): > 10 µM (inactive)
- GI50 (SK-MEL-5): > 10 µM (inactive)
- GI50 (SW-620): > 10 µM (inactive)
- GI50 (SNB-75): > 10 µM (inactive)
- GI50 (K562): > 10 µM (inactive)
- GI50 (A549): > 10 µM (inactive)
- GI50 (M14): > 10 µM (inactive)
- GI50 (CAKI-1): > 10 µM (inactive)
- GI50 (HOP-62): > 10 µM (inactive)
- GI50 (OVCAR-5): > 10 µM (inactive)
- GI50 (SK-MEL-2): > 10 µM (inactive)
- GI50 (NCI-H23): > 10 µM (inactive)
- GI50 (Malme-3M): > 10 µM (inactive)
- GI50 (SK-MEL-28): > 10 µM (inactive)
- GI50 (CCRF-CEM): > 10 µM (inactive)
